Source: patent US11872324B2, “Materials and methods for tissue regeneration” (The University Court of the University of Glasgow, priority 2015, dated 2024)

Experiments:
[1] = system: Murine embryonic mesenchymal stem cells (mMSCs) C3H10T1/2; assay: Inhibition of contractility in mMSCs; type: cell-based; details: for osteogenic marker expression: mMSCs on all substrates, 20 μM inhibitor; for Staining for pMLC / expression of stemness markers (Sca1, CD29): mMSCs; for Staining for pMLC: 10 and 20 μM inhibitor; for expression of stemness markers (Sca1, CD29): 15 days, basal conditions with inhibitor
ERK1/2 = ERK1/2 phosphorylation ELISA in HUVEC; type: cell-based, human; details: 30 min
Procedure: VEGF bound to substrates was assayed indirectly by measuring remaining VEGF in coating solution with a sandwich ELISA kit according to the manufacturer's instructions (DuoSetDY293B, R&D Systems). Levels of phosphorylation of ERK1/2 in HUVECs seeded onto functionalized surfaces were assessed after 30 min incubation using DuoSet ELISA kit following the manufacturer's instructions (DuoSetDYC1018B, R&D Systems). Human umbilical vein endothelial cells (HUVEC) (Cellworks) were maintained in HLVEC complete media (Cellworks). For any experiment, cells with not higher than 10 population doublings were used (usually corresponding up to P5). For network formation experiments, cell seeding density was optimized, and cells were eventually seeded at 10,000 cells/cm^2. Seeding was done on protein-functionalized and control polymer-coated substrates, and cells were left to adhere in a CO2 incubator at 37° C. After 16 h, medium was removed and replaced with fibrinogen solution (20 mg/ml) in HLVEC complete media, containing also 50 U/ml of thrombin and 1.2 mg/ml of aprotinin; to allow complete fibrinogen clotting, samples were placed in CO2 incubator for 1 h. After clotting, fibrin matrix was covered with 0.5 ml HLVEC complete media with 25 ng/ml of VEGF where required, and samples were kept at 37° C. for 6 day period, with media changed every second day.

VEGFR-2 = VEGFR-2 (Homo sapiens, UniProt P35968)
Sequence of VEGFR-2 (P35968 20-1356): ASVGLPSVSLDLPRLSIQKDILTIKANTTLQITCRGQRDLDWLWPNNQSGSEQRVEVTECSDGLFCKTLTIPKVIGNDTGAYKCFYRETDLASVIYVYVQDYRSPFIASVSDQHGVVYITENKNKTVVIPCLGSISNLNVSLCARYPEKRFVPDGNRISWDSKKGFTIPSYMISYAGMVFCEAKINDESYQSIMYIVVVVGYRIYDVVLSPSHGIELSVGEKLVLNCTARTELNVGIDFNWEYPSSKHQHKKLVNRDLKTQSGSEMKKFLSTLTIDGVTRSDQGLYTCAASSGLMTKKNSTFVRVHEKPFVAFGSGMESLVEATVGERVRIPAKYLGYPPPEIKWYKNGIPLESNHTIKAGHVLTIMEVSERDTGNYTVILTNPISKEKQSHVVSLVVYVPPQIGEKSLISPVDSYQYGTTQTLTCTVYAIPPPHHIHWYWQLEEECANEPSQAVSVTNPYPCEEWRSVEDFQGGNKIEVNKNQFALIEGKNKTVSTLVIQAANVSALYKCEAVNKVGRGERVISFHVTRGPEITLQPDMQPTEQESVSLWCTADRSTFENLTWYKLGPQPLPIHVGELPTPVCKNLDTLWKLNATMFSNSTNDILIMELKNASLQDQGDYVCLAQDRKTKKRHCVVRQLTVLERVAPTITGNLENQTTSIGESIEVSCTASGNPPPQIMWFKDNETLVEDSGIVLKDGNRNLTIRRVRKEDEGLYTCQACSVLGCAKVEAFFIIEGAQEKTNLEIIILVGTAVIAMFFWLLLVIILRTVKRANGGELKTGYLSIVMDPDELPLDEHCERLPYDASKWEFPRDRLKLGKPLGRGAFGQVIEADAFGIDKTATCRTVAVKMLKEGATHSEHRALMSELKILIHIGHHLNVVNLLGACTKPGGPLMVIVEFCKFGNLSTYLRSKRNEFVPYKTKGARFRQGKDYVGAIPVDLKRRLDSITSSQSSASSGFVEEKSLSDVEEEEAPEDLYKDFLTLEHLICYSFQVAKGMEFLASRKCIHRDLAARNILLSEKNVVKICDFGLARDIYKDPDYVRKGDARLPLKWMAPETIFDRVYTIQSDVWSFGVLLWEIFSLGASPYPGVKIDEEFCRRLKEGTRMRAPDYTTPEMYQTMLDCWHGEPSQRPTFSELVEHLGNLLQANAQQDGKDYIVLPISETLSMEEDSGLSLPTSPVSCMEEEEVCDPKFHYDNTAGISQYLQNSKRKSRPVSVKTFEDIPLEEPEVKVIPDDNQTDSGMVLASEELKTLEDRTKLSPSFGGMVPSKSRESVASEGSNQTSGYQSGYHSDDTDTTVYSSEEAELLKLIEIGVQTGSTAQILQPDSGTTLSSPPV
Procedure: The most direct way to look at VEGF effect on downstream signaling was to assess its receptor phosphorylation. An immunofluorescence test for presence of phosphorylated VEGFR-2 was performed on standard HUVEC culture on tissue plastics, when cells were stimulated with 25 ng/ml of VEGF for two different time periods (2 min and 30 min). […] Therefore it was decided to assay phosphorylation of one of the downstream effectors, ERK1/2 which is activated via MAPK branch of GF receptor signaling.

[2] = system: Human bone marrow mesenchymal stem cells (hMSCs); assay: Alkaline phosphatase staining of hMSCs; type: cell-based; details: 28 days, noggin 50 ng/ml
Procedure: Human bone marrow mesenchymal stem cells (hMSCs) from Promocell were maintained in basal media (αMEM, 10% FBS, 1% P/S, 1% fungizone, 2 mM L-glutamine, 1 ng/ml FGF-2) at 37° C. with 5% CO2. Cells were seeded onto the materials at 10^4 cells/cm2 using seeding media (DMEM high glucose, 1% P/S, 1% FBS,) and media were changed twice a week. For all cultures the first 2 hours (initial cell adhesion) were in absence of serum and GF. Cells were used at passages P0-P3. Each experiment was performed in triplicate.
Cells were cultured on materials for 28 days. Noggin (50 ng/ml) was added in a set of samples and phosphate deposition was analysed by an Alkaline Phosphatase assay (Sigma, 86C-1KT). Cells were fixed with the fixative solution (citrate-acetone-formaldehide solution) at RT for 30 s. Afterwards, samples were stained with the alkaline-dye mixture and incubated at RT in darkness for 15 min. Samples were counterstained for 2 minutes with neutral red solution and rinsed in tap water.

[3] = molecular target: Fibronectin (FN) from human plasma adsorbed on poly(ethyl acrylate) (PEA), organised into a fibrillar (nano)network (human) (UniProt P02751); assay: sandwich ELISA of BMP-2 released from FN-coated surfaces
[4] = molecular target: Fibronectin (FN) from human plasma adsorbed on poly(ethyl acrylate) (PEA), organised into a fibrillar (nano)network (human) (UniProt P02751); assay: ELISA; BMP-2 adsorbed on FN-coated polymer implant tubes
[5] = molecular target: Fibronectin (FN) from human plasma adsorbed on poly(ethyl acrylate) (PEA), organised into a fibrillar (nano)network (human) (UniProt P02751); assay: ELISA; BMP-2 adsorbed from 5 µg/ml on FN-coated polymer implant tubes

## Cc1ccc2c(c1)C(=O)C1(O)CCN(c3ccccc3)C1=N2 (centres unmarked) [blebbistatin]
[1]
  osteogenic marker expression: greatly reduced
  Staining for pMLC: reduced in a dose-dependent manner
  expression of stemness markers (Sca1, CD29): strongly reduced

## VEGF
ERK1/2; PEA samples vs PEA sample without VEGF
  ERK1/2 phosphorylation, VEGF present in the medium: did not show any difference
ERK1/2; vs PEA without bound VEGF
  ERK1/2 phosphorylation, VEGF coated on PEA: higher level
VEGFR-2
  phosphorylated VEGFR-2 after 2 min: present
  phosphorylated VEGFR-2 after 30 min: no phosphorylation was detected

## C[C@@H](N)[C@H]1CC[C@H](C(=O)Nc2ccncc2)CC1 [Y-27632]
[1]
  osteogenic marker expression: greatly reduced
  Staining for pMLC: reduced in a dose-dependent manner
  expression of stemness markers (Sca1, CD29): strongly reduced

B1: noggin: used as BMP-2 inhibitor to prevent activity (50 ng/ml) (protein)
chain: QHYLHIRPAPSDNLPLVDLIEHPDPIFDPKEKDLNETLLRSLLGGHYDPGFMATSPPEDRPGGGGGAAGGAEDLAELDQLLRQRPSGAMPSEIKGLEFSEGLAQGKKQRLSKKLRRKLQMWLWSQTFCPVLYAWNDLGSRFWPRYVKVGSCFSKRSCSVPEGMVCKPSKSVHLTVLRWRCQRRGGQRCGWIPIQYPIISECKCSC
[2]
  PEA driven FN/BMP-2 osteogenic differentiation (ALP): reduced

B2: BMP-2 (R&D Systems, 355-BM or 355-BM/CF) (ligand, UniProt P12643 283-396, looked up)
chain: QAKHKQRKRLKSSCKRHPLYVDFSDVGWNDWIVAPPGYHAFYCHGECPFPLADHLNSTNHAIVQTLVNSVNSKIPKACCVPTELSAISMLYLDENEKVVLKNYQDMVVEGCGCR
[3]
  BMP-2 released after 14 days: < 10%
[4]
  amount of BMP-2 on the coated tube: 15 ng
[5]
  surface density: 100 ng/cm^2
